Reference: PubChem BioAssay (NCI)
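Assay format: 96-well plates, 48-hour exposure. TGI: total growth inhibition.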

How the values were obtained:
Assay in all cases: NCI anticancer screen, dose series, 48 h
MDA-MB-231 breast = tested on: MDA-MB-231 breast
HOP-92 NSCLC = tested on: HOP-92 NSCLC
SK-MEL-28 melanoma = tested on: SK-MEL-28 melanoma
MOLT-4 leukemia = tested on: MOLT-4 leukemia
K-562 leukemia = tested on: K-562 leukemia
UACC-62 melanoma = tested on: UACC-62 melanoma
COLO 205 colon = tested on: COLO 205 colon
SK-MEL-2 melanoma = tested on: SK-MEL-2 melanoma
MDA-N = tested on: MDA-N
T-47D breast = tested on: T-47D breast
ACHN renal = tested on: ACHN renal
SF-539 CNS = tested on: SF-539 CNS
PC-3 prostate = tested on: PC-3 prostate
SNB-19 CNS = tested on: SNB-19 CNS
OVCAR-3 ovarian = tested on: OVCAR-3 ovarian
SF-268 CNS = tested on: SF-268 CNS
M14 melanoma = tested on: M14 melanoma
HT29 colon = tested on: HT29 colon
OVCAR-8 ovarian = tested on: OVCAR-8 ovarian
NCI-H226 lung = tested on: NCI-H226 lung
OVCAR-5 ovarian = tested on: OVCAR-5 ovarian
SK-OV-3 ovarian = tested on: SK-OV-3 ovarian
786-0 renal = tested on: 786-0 renal
HCT-15 colon = tested on: HCT-15 colon
SNB-75 CNS = tested on: SNB-75 CNS
CCRF-CEM leukemia = tested on: CCRF-CEM leukemia
OVCAR-4 ovarian = tested on: OVCAR-4 ovarian
MALME-3M melanoma = tested on: MALME-3M melanoma
NCI-H23 lung = tested on: NCI-H23 lung
UO-31 renal = tested on: UO-31 renal
MDA-MB-435 = tested on: MDA-MB-435
HCC-2998 colon = tested on: HCC-2998 colon
U251 CNS = tested on: U251 CNS
SN12C renal = tested on: SN12C renal
NCI/ADR-RES ovarian = tested on: NCI/ADR-RES ovarian
SR leukemia = tested on: SR leukemia
NCI-H522 lung = tested on: NCI-H522 lung
SF-295 CNS = tested on: SF-295 CNS
RXF 393 renal = tested on: RXF 393 renal
KM12 colon = tested on: KM12 colon
HOP-62 NSCLC = tested on: HOP-62 NSCLC
NCI-H460 lung = tested on: NCI-H460 lung
TK-10 renal = tested on: TK-10 renal
DU-145 prostate = tested on: DU-145 prostate
A498 renal = tested on: A498 renal
LOX IMVI melanoma = tested on: LOX IMVI melanoma
UACC-257 melanoma = tested on: UACC-257 melanoma
HL-60(TB) leukemia = tested on: HL-60(TB) leukemia
SK-MEL-5 melanoma = tested on: SK-MEL-5 melanoma
A549 NSCLC = tested on: A549 NSCLC
IGROV1 ovarian = tested on: IGROV1 ovarian
HCT-116 colon = tested on: HCT-116 colon
BT-549 breast = tested on: BT-549 breast
CAKI-1 renal = tested on: CAKI-1 renal
SW-620 colon = tested on: SW-620 colon
MCF7 breast = tested on: MCF7 breast
EKVX NSCLC = tested on: EKVX NSCLC
HS 578T breast = tested on: HS 578T breast
RPMI-8226 leukemia = tested on: RPMI-8226 leukemia

For `CC(=O)c1c(-c2ccc(Cl)cc2)c(C#N)c(=S)n(C2OC(CO)C(O)C(O)C2O)c1C` (centres undefined), the TGI (MDA-MB-231 breast) was > 100 µM, the TGI (HOP-92 NSCLC) was 65.6 µM and the TGI (SK-MEL-28 melanoma) was 87.6 µM. The TGI (MOLT-4 leukemia) was 52.8 µM, the TGI (K-562 leukemia) was > 100 µM and the TGI (UACC-62 melanoma) was 57.8 µM. It also gave a TGI (COLO 205 colon) of 95.1 µM, a TGI (SK-MEL-2 melanoma) of 84.5 µM and a TGI (MDA-N) of 86.8 µM. For the same compound, the TGI (T-47D breast) was > 100 µM, the TGI (ACHN renal) was > 100 µM and the TGI (SF-539 CNS) was > 100 µM. The TGI (PC-3 prostate) was 99.3 µM, the TGI (SNB-19 CNS) was 84.9 µM and the TGI (OVCAR-3 ovarian) was > 100 µM. For the same compound, the TGI (SF-268 CNS) was > 100 µM, the TGI (M14 melanoma) was > 100 µM and the TGI (HT29 colon) was > 100 µM. For the same compound, the TGI (OVCAR-8 ovarian) was > 100 µM, the TGI (NCI-H226 lung) was > 100 µM and the TGI (OVCAR-5 ovarian) was > 100 µM. The TGI (SK-OV-3 ovarian) was > 100 µM, the TGI (786-0 renal) was > 100 µM and the TGI (HCT-15 colon) was > 100 µM. For the same compound, the TGI (SNB-75 CNS) was > 100 µM, the TGI (CCRF-CEM leukemia) was 63.7 µM and the TGI (OVCAR-4 ovarian) was > 100 µM. The TGI (MALME-3M melanoma) was > 100 µM, the TGI (NCI-H23 lung) was > 100 µM and the TGI (UO-31 renal) was 6.92 µM. The TGI (MDA-MB-435) was > 100 µM, the TGI (HCC-2998 colon) was > 100 µM and the TGI (U251 CNS) was > 100 µM. For the same compound, the TGI (SN12C renal) was > 100 µM, the TGI (NCI/ADR-RES ovarian) was > 100 µM and the TGI (SR leukemia) was 87.6 µM. For the same compound, the TGI (NCI-H522 lung) was > 100 µM, the TGI (SF-295 CNS) was > 100 µM and the TGI (RXF 393 renal) was > 100 µM. For the same compound, the TGI (KM12 colon) was > 100 µM, the TGI (HOP-62 NSCLC) was > 100 µM and the TGI (NCI-H460 lung) was > 100 µM. The TGI (TK-10 renal) was > 100 µM, the TGI (DU-145 prostate) was > 100 µM and the TGI (A498 renal) was > 100 µM. The TGI (LOX IMVI melanoma) was > 100 µM, the TGI (UACC-257 melanoma) was > 100 µM and the TGI (HL-60(TB) leukemia) was 54 µM. The TGI (SK-MEL-5 melanoma) was > 100 µM, the TGI (A549 NSCLC) was > 100 µM and the TGI (IGROV1 ovarian) was > 100 µM. The TGI (HCT-116 colon) was > 100 µM.
Compound `CC(C)(C)O/N=C/c1cc(NC(=S)c2ccccc2)ccc1Cl` has a TGI (MDA-MB-231 breast) of 40.3 µM, a TGI (HOP-92 NSCLC) of 34.4 µM and a TGI (SK-MEL-28 melanoma) of 32.5 µM. It also gave a TGI (MOLT-4 leukemia) of 39.7 µM, a TGI (UACC-62 melanoma) of 32.7 µM and a TGI (COLO 205 colon) of 27.8 µM. The TGI (BT-549 breast) was 35.1 µM, the TGI (SK-MEL-2 melanoma) was 39.6 µM and the TGI (MDA-N) was 29.9 µM. The TGI (T-47D breast) was 62.5 µM, the TGI (ACHN renal) was 32.7 µM and the TGI (SF-539 CNS) was 71.4 µM. The TGI (PC-3 prostate) was 46 µM, the TGI (SNB-19 CNS) was 63.8 µM and the TGI (OVCAR-3 ovarian) was 35.3 µM. The TGI (SF-268 CNS) was 58.5 µM, the TGI (M14 melanoma) was 54.1 µM and the TGI (HT29 colon) was 29.2 µM. For the same compound, the TGI (OVCAR-8 ovarian) was 35.6 µM, the TGI (NCI-H226 lung) was 34.7 µM and the TGI (OVCAR-5 ovarian) was 69.7 µM. The TGI (SK-OV-3 ovarian) was > 100 µM, the TGI (786-0 renal) was 32.5 µM and the TGI (HCT-15 colon) was 32.1 µM. It also gave a TGI (CCRF-CEM leukemia) of 74.5 µM, a TGI (CAKI-1 renal) of 72.4 µM and a TGI (OVCAR-4 ovarian) of 74.7 µM. It also gave a TGI (MALME-3M melanoma) of 40.6 µM, a TGI (NCI-H23 lung) of 34.1 µM and a TGI (UO-31 renal) of 31.6 µM. The TGI (MDA-MB-435) was 88.7 µM, the TGI (HCC-2998 colon) was 24.2 µM and the TGI (U251 CNS) was 45.5 µM. The TGI (SW-620 colon) was 45.3 µM, the TGI (SN12C renal) was 26 µM and the TGI (NCI/ADR-RES ovarian) was 33.5 µM. It also gave a TGI (SR leukemia) of 47.2 µM, a TGI (NCI-H522 lung) of 28.2 µM and a TGI (SF-295 CNS) of 51.3 µM. For the same compound, the TGI (RXF 393 renal) was 27.9 µM, the TGI (KM12 colon) was 25.7 µM and the TGI (HOP-62 NSCLC) was 37.1 µM. The TGI (NCI-H460 lung) was 24.3 µM, the TGI (TK-10 renal) was 31.1 µM and the TGI (MCF7 breast) was > 100 µM. The TGI (DU-145 prostate) was 42.1 µM, the TGI (A498 renal) was 27.6 µM and the TGI (LOX IMVI melanoma) was 30.4 µM. It also gave a TGI (UACC-257 melanoma) of 31 µM, a TGI (HL-60(TB) leukemia) of 42.6 µM and a TGI (SK-MEL-5 melanoma) of 41.5 µM. It also gave a TGI (A549 NSCLC) of 35.1 µM, a TGI (IGROV1 ovarian) of 27.1 µM and a TGI (HCT-116 colon) of 29.4 µM. It also gave a TGI (EKVX NSCLC) of 40.7 µM, a TGI (HS 578T breast) of 63 µM and a TGI (RPMI-8226 leukemia) of 41 µM.
